Columns and labels:
[1] = test system: choroidal neovascularization (CNV); assay: Laser-induced choroidal neovascularization model, intravitreal injection immediately after laser irradiation; format: in vivo, C57BL/6 mice; conditions: intraocular injection for 5 days, day 14 after laser (FIG. 2A, 2B)
Experimental: 5-8 week old C57BL/6 mice were purchased from Orient and used.
The pupils of each mouse were dilated using 5 mg/mL Tropicamide (santen pharmaceutical co. ltd, Kita-ku, Osaka, Japan) eye drops and 100 mg/kg ketamine (Huons, SEONGNAM-SI, GYEONGGI-DO, Korea) and 10 mg/kg xylazine (BAYER, Leverkusen, Germany) were anesthetized by intraperitoneal injection.
After anesthesia, the mice were fixed to the mouse holder, and a laser beam of 150 to 210 mW intensity was irradiated for 0.1 second using a slit lamp microscope laser system to prepare four lesions of 50-100 μm size in the retinas of mice at 3, 6, 9 and 12 o'clock. At this time, droplets should be formed by the laser beam, which are important for breaking Bruch's membranes to form neovascularization (CNV). […]
The stained eyeball was separated and placed in 10% formalin to fix for 30 minutes, and then muscles, corneas, irises, lenses and vitreous bodies around the eyeball were carefully removed not to hurt the eye's retina fixed on the microscope and four sections were cut at 3, 6, 9, and 12 o'clock, covered with coverslip, the lesion was photographed using a fluorescence microscope, and the size was measured to compare with the control group.

[2] = test system: HUVECs cells; assay: Tube formation assay in VEGF-165-induced HUVECs; format: cell-based, human
Experimental: 48-well plates were coated with 200 μl Matrigel and maintained at 37° C. for 1 hour, and HUVECs cells were stained with Calcein-AM for 15 minutes at 37° C.
The stained HUVECs cells were dispensed into 2×10^4 cells in each well of a Matrigel-coated plate and treated with recombinant human VEGF-165 into each well to induce the tube formation of the cells.
Thereafter, collagen type I (collagen type I alpha 1, partial [Sus scrofa] GenBank: AAR03833.1) and 34-mer pigment epithelium derived factor peptide (DPFFKVPVNKLAAAVSNFGYDLYRVRSSTSPTTN: SEQ ID NO: 1) were treated separately, respectively, or mixed together and treated and incubated for 4 hours at 37° C., and the degree of tube formation of each group was confirmed.
The degree of tube formation was confirmed by taking pictures with a Micromanipulator (Olympus) and compared by measuring the length of the tube.

[3] = test system: HUVECs tube formation; assay: Stability confirmation by tube formation assay after storage; format: physicochemical, human; conditions: stored for 6 weeks at 4° C. and room temperature (FIG. 11)
Experimental: In order to confirm the stability of the mixture of PEDF 34-mer peptide and collagen, the mixture of PEDF 34-mer peptide and collagen and the PEDF 34-mer peptide were stored for 6 weeks at 4° C. and room temperature (RT), and stability of PEDF 34-mer peptide and PEDF 34-mer peptide and collagen mixture, which were prepared immediately before the experiment, were compared.
Tube formation assay for each mixture was performed to confirm angiogenesis inhibitory ability.

[4] = test system: choroidal neovascularization (CNV); assay: Choroidal neovascularization model with complete neovascularization, treatment on day 7 after laser irradiation; format: in vivo, C57BL/6 mice; conditions: 0.1% collagen type I, 25 pmol peptide or their mixture, administered once on day 7 after laser irradiation (FIG. 7B, 7C)

Substance: DPFFKVPVNKLAAAVSNFGYDLYRVRSSTSPTTN (DPFFKVPVNKLAAAVSNFGYDLYRVRSSTSPTTN; pigemented epithelium derived factor peptide)
- size of neovascularization (CNV) ([1]; peptide 10 pmol): increase neovascularization (CNV) again
- size of neovascularization (CNV) ([1]; peptide 0.01, 0.5 and 0.1 pmol): significantly reduced
- inhibitory effect on tube formation ([2]; carrier comparison: 0.1% collagen type I, hyaluronic acid or gelatin, alone or with peptide 0.02-500 pmol/ml (FIG. 4)): same as that of the 34-mer pigment epithelium derived factor peptide and collagen type I mixture administration group
- inhibitory effect on tube formation ([2]; peptide alone 0.2 pg/ml, VEGF-165-induced HUVECs, 4 hours (FIG. 1A, 1B)): greatest inhibitory effect on tube formation
- tube formation ([2]; peptide alone at higher concentrations (up to 5 pmol/ml), 4 hours (FIG. 1A, 1B)): the tube formation increased again
- tube formation ([2]; peptide at high concentration, alone or mixed with 0.05 or 0.1% collagen type I (FIG. 3)): the tube formation increased rapidly
- stability: tube formation inhibition after storage compared with preparation made immediately before the experiment [3]: did not inhibit the tube formation
- angiogenesis inhibitory effect [4]: almost no angiogenesis inhibitory effect

From US11197918B2, “Pharmaceutical composition for preventing or treating neovascular disease, containing collagen type i and pigment epithelium derived factor peptide as active ingredients” (NexThera Co., Ltd., priority 2017, dated 2021)
